# Assay results from patent publication US20230210867A1, “TREATMENT OF ADJUSTMENT DISORDERS” (VISTAGEN THERAPEUTICS, INC., priority 2020, published 2023).
# Tests used:
# [1] = tested on: Adjustment Disorder with Anxiety (AjDA) symptoms in adults; assay: Phase 2A clinical trial of PH94B neuroactive nasal spray in Adjustment Disorder with Anxiety (AjDA); assay type: in vivo, human; settings: adult subjects with AjDA, compared to placebo
# From the text: A clinical trial is designed and conducted to evaluate the efficacy, safety and tolerability of daily administration of PH94B neuroactive nasal spray (Example 1) as a treatment of Adjustment Disorder with Anxiety (AjDA) symptoms in adults, associated with identifiable stressors related to the COVID-19 pandemic. Subject are confirmed with current diagnoses of this condition as defined in the Diagnostic and Statistical Manual of Mental Disorders, 5th Edition (DSM-5).
# The PH94B study drug is delivered intranasally with the nozzle of the applicator positioned in the nasal vestibule and directed toward the midline (medial part or nasal septum). In order to administer study medication, the actuator (pusher) should be depressed.
# Prior to the use of a new study medication bottle, the subject is instructed to shake the bottle five times and to prime the bottle by depressing the actuator five times. […]
# 1. Individual subject improvement as assessed by the Sheehan Disability Scale (SDS) at the end of week 4 of treatment with PH94B compared to placebo.
# 2. Individual subject improvement as assessed by the Clinical Global Impression-Improvement rating (CGI-I). […]
# 3. Individual subject improvement as assessed by the subject's self-assessment of improvement (PGI-C) at the end of week 4 of treatment with PH94B compared to placebo. […]
# [2] = all clinical studies to date; cited from earlier work
# [3] = tested on: symptoms of social anxiety disorder (SAD); settings: earlier clinical studies; cited from earlier work
smiles,measurement,setting,value
"C[C@@]12C=CC[C@H]1[C@@H]1CCC3=C[C@@H](O)CC[C@]3(C)[C@H]1CC2 [PH94B, [3β]-androsta-4,16-dien-3-ol]",anxiety levels as measured by the Hamilton Anxiety Scale (HAM-A),"[1]; 3.2 μg intranasal four times per day, four weeks",statistically significant reduction in anxiety levels
same,"secondary endpoints (SDS, CGI-I, PGI-C, ADNM)",[1]; end of week 4 of treatment,statistically significant improvement
same,safety in clinical studies,[2],safe
same,efficacy in treating symptoms of social anxiety disorder (SAD),[3],significant efficacy
